Results: patent US20010021697A1, “METHODS AND COMPOSITIONS FOR THE TREATMENT OF MAMMALIAN INFECTIONS EMPLOYING MEDICAMENTS COMPRISING HYMENOPTERA VENOM, PROTEINAGEOUS OR POLYPEPTIDE COMPONENTS THEREOF, OR ANALOGUES OF SUCH PROTEINACEOUS OR POLYPEPTIDE COMPONENTS” (priority 1987, published 2001)
Where “and” joins values, the source holds several entries; their conditions need not be identical. Equal values may be shown once.

What was measured:
Type in all cases: cell-based
Escherichia coli = test: Growth curves with polymyxin B and bumble bee, yellowjacket or baldfaced hornet venom; conditions: for optical density, AVERAGE: AVERAGE line; for optical density: single replicates
Method: The activity of hymenoptera venom other than HBV was also determined for bumblee venom, yellow jacket venom and bald faced hornet venom, as shown below in Tables 8, 9

[1] = tested on: kanamycin resistant S. aureus; test: Checkerboard titration assay for synergy of honeybee venom with antibiotics (OD660 growth curves)
[2] = tested on: E. Coli strain No. G1108E; test: Checkerboard titration synergy assay of natural melittin and analogue #6 with polymyxin B; conditions: 0 hrs
[3] = 0 hours after innoculation, YJ 5 ug/ml, BF 5 ug/ml, Pol B 3.125 U/ml alone, Pol B 5 U/ml in the combinations
[4] = 0 hours after innoculation, doses of what is present: Pol B 3.125 Units/ml, BB Venom 5 ug/ml
[5] = 0 hours after innoculation, doses of what is present: Pol B 6.25 Units/ml, BB Venom 20 ug/ml
[6] = 2 hours after innoculation, YJ 5 ug/ml, BF 5 ug/ml, Pol B 3.125 U/ml alone, Pol B 5 U/ml in the combinations
[7] = 2 hours after innoculation, doses of what is present: Pol B 3.125 Units/ml, BB Venom 5 ug/ml
[8] = 2 hours after innoculation, doses of what is present: Pol B 6.25 Units/ml, BB Venom 20 ug/ml
[9] = 4 hours after innoculation, YJ 5 ug/ml, BF 5 ug/ml, Pol B 3.125 U/ml alone, Pol B 5 U/ml in the combinations
[10] = 4 hours after innoculation, doses of what is present: Pol B 3.125 Units/ml, BB Venom 5 ug/ml
[11] = 4 hours after innoculation, doses of what is present: Pol B 6.25 Units/ml, BB Venom 20 ug/ml
[12] = 6 hours after innoculation, YJ 5 ug/ml, BF 5 ug/ml, Pol B 3.125 U/ml alone, Pol B 5 U/ml in the combinations
[13] = 6 hours after innoculation, doses of what is present: Pol B 3.125 Units/ml, BB Venom 5 ug/ml
[14] = 8 hours after innoculation, YJ 5 ug/ml, BF 5 ug/ml, Pol B 3.125 U/ml alone, Pol B 5 U/ml in the combinations
[15] = 8 hours after innoculation, doses of what is present: Pol B 3.125 Units/ml, BB Venom 5 ug/ml
[16] = 8 hours after innoculation, doses of what is present: Pol B 6.25 Units/ml, BB Venom 20 ug/ml
[17] = 12 hours after innoculation, YJ 5 ug/ml, BF 5 ug/ml, Pol B 3.125 U/ml alone, Pol B 5 U/ml in the combinations
[18] = 12 hours after innoculation, doses of what is present: Pol B 3.125 Units/ml, BB Venom 5 ug/ml
[19] = 12 hours after innoculation, doses of what is present: Pol B 6.25 Units/ml, BB Venom 20 ug/ml

## Polymyxin B
Escherichia coli; [3]
  optical density, AVERAGE: .038
  optical density: .038
Escherichia coli; [4]
  optical density, AVERAGE: .030
  optical density: .030
Escherichia coli; [5]
  optical density, AVERAGE: .030
  optical density: .030
Escherichia coli; [6]
  optical density, AVERAGE: .480
  optical density: .477 and .482
Escherichia coli; [7]
  optical density, AVERAGE: .649
  optical density: .654 and .642 and .652
Escherichia coli; [8]
  optical density, AVERAGE: .023
  optical density: .022 (2×) and .024
Escherichia coli; [9]
  optical density, AVERAGE: 1.03
  optical density: 1.03
Escherichia coli; [10]
  optical density, AVERAGE: 1.02
  optical density: 1.03 and 1.02 (2×)
Escherichia coli; [11]
  optical density, AVERAGE: .251
  optical density: .102 and .472 and .180
Escherichia coli; [12]
  optical density, AVERAGE: 1.07
  optical density: 1.07
Escherichia coli; [13]
  optical density, AVERAGE: 1.03
  optical density: 1.03
Escherichia coli; 6 hours after innoculation, doses of what is present: Pol B 6.25 Units/ml, BB Venom 20 ug/ml
  optical density, AVERAGE: .827
Escherichia coli; [14]
  optical density, AVERAGE: 1.08
  optical density: 1.08
Escherichia coli; [15]
  optical density, AVERAGE: 1.04
  optical density: 1.04
Escherichia coli; [16]
  optical density, AVERAGE: .960
  optical density: .960 and .950 and .970
Escherichia coli; [17]
  optical density, AVERAGE: 1.14
  optical density: 1.14
Escherichia coli; [18]
  optical density, AVERAGE: 1.13
  optical density: 1.12 and 1.14 (2×)
Escherichia coli; [19]
  optical density, AVERAGE: 1.03
  optical density: 1.03 (2×) and 1.04
[1]
  susceptibility to polymyxin B compared with the parent strain: more susceptible to polymyxin B than the parent strain
[1]; POLY B = 12.5, HBV = 0, T0
  MEAN A660: 0.009
[1]; POLY B = 12.5, HBV = 0, T2
  MEAN A660: 0.068
[1]; POLY B = 12.5, HBV = 0, T4
  MEAN A660: 0.266
[1]; POLY B = 12.5, HBV = 0, T6
  MEAN A660: 0.640
[1]; POLY B = 12.5, HBV = 0, T8
  MEAN A660: 0.826
[1]; POLY B = 12.5, HBV = 0, T12
  MEAN A660: 0.976
[1]; POLY B = 12.5, HBV = 0, T24
  MEAN A660: 0.962
[1]; POLY B = 25, HBV = 0, T0
  MEAN A660: 0.009
[1]; POLY B = 25, HBV = 0, T2
  MEAN A660: 0.068
[1]; POLY B = 25, HBV = 0, T4
  MEAN A660: 0.243
[1]; POLY B = 25, HBV = 0, T6
  MEAN A660: 0.629
[1]; POLY B = 25, HBV = 0, T8
  MEAN A660: 0.835
[1]; POLY B = 25, HBV = 0, T12
  MEAN A660: 1.008
[1]; POLY B = 25, HBV = 0, T24
  MEAN A660: 1.048
[1]; POLY B = 50, HBV = 0, T0
  MEAN A660: 0.009
[1]; POLY B = 50, HBV = 0, T2
  MEAN A660: 0.068
[1]; POLY B = 50, HBV = 0, T4
  MEAN A660: 0.208
[1]; POLY B = 50, HBV = 0, T6
  MEAN A660: 0.376
[1]; POLY B = 50, HBV = 0, T8
  MEAN A660: 0.567
[1]; POLY B = 50, HBV = 0, T12
  MEAN A660: 0.841
[1]; POLY B = 50, HBV = 0, T24
  MEAN A660: 0.968
[1]; POLY B = 100, HBV = 0, T0
  MEAN A660: 0.009
[1]; POLY B = 100, HBV = 0, T2
  MEAN A660: 0.068
[1]; POLY B = 100, HBV = 0, T4
  MEAN A660: 0.243
[1]; POLY B = 100, HBV = 0, T6
  MEAN A660: 0.629
[1]; POLY B = 100, HBV = 0, T8
  MEAN A660: 0.835
[1]; POLY B = 100, HBV = 0, T12
  MEAN A660: 1.008
[1]; POLY B = 100, HBV = 0, T24
  MEAN A660: 1.048
[2]; doses of what is present: Polymyxin B 3 units, peptide 5 ug
  Average optical densities (OD660): .013
[2]; doses of what is present: Polymyxin B 6 units, peptide 10 ug
  Average optical densities (OD660): .013
